Data published in publication PMC7034070, “Synthesis, anti-inflammatory, cytotoxic, and COX-1/2 inhibitory activities of cyclic imides bearing 3-benzenesulfonamide, oxime, and β-phenylalanine scaffolds: a molecular docking study” (Journal of Enzyme Inhibition and Medicinal Chemistry, 2020).
Values joined by “and” are separate entries in the source; they are usually repeats but may differ in a detail not shown here. Equal entries are not always repeated.

Experiments:
[1] = system: carrageenan induced rat paw oedema; assay: rat carrageenan-induced foot paw oedema model; type: in vivo; settings: for Mean % increase in paw weight ± SEM / % Inhibition of paw oedema from control group: 2 h after carrageenan; for Mean % increase in paw weight ± SEM: control group 165.6 ± 1.6; for % Inhibition of paw oedema from control group: single dose screen (Table 1); for ED50: from three graded doses (45, 65, 80 mg/kg)
Description: Anti-inflammatory assessment of the newly synthesised compounds was carried out using an in vivo rat carrageenan-induced foot paw oedema model, as reported previously[16]^,[17].

mice = assay: Ulcerogenicity measurement; type: in vivo; settings: for Average number of ulcers / Mean sum of lengths of elongated ulcer: mice; for Mean sum of lengths of elongated ulcer: ± SEM; for level of ulcerogenic activity (in words): relative to diclofenac and celecoxib
Description: Ulcerogenicity was evaluated according to a previously reported method[6]^a,[17]^,[18]. The number and total length of the ulcers for each animal were measured and their averages were calculated and used as the ulcer indices.

COX-1 = target: T1, COX-1 (Ovis aries, UniProt P05979); assay: colorimetric COX (ovine) inhibitor screening assay kit; type: biochemical; settings: ovine COX-1, mean of two determinations
T1 construct: purchased Cayman Chemicals Inc., Ann Arbour, MI
T1 sequence (P05979 25-600): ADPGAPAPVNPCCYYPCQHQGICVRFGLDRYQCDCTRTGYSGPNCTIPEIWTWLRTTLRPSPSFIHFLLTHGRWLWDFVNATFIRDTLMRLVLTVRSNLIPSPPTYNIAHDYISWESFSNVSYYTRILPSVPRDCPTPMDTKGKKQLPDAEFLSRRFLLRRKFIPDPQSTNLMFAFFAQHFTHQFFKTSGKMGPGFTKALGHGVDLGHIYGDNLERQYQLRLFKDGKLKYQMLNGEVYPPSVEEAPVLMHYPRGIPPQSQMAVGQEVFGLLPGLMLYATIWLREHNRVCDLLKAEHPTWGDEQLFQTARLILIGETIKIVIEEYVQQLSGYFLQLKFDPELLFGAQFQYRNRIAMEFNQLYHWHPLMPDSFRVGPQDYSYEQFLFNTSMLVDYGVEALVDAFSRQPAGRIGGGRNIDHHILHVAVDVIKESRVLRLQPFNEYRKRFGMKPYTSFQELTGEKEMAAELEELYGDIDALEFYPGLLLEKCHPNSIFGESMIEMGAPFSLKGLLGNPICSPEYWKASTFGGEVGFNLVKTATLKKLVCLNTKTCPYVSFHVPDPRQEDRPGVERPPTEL
Description: (§1) To determine the relative ability of the test compounds and reference drugs to inhibit COX-1/COX-2 isozymes, we used the colorimetric COX (ovine) inhibitor screening assay kit (Cayman Chemicals Inc., Ann Arbour, MI), according to the manufacturer’s instructions[3]^,[10]^,[11]^,[20].

COX-2 = target: T2, COX-2 (Ovis aries, UniProt P79208); assay: as above; type: biochemical; settings: for SI, selectivity index (COX-1 IC50/COX-2 IC50): ovine COX-1/COX-2; for IC50: ovine COX-2, mean of two determinations
T2 construct: purchased Cayman Chemicals Inc., Ann Arbour, MI
T2 sequence (P79208 17-603): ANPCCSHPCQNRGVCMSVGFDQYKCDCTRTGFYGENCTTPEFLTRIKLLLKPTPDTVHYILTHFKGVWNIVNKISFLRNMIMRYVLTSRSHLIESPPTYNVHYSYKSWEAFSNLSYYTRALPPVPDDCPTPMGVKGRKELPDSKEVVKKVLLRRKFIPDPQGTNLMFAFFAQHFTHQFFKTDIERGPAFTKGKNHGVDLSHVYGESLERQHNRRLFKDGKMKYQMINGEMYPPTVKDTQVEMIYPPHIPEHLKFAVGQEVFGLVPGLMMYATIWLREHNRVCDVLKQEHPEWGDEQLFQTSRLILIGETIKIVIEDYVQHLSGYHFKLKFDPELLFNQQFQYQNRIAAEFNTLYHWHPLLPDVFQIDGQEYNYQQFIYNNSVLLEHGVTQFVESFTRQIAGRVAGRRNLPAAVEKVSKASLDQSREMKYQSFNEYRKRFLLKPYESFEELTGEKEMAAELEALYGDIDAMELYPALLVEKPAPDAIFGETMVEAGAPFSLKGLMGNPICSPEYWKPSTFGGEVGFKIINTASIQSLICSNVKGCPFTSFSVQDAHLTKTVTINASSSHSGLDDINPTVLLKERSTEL
Description: as §1

Cc1ccc(-c2cc(C(F)(F)F)nn2-c2ccc(S(N)(=O)=O)cc2)cc1 [Celecoxib, 4-[5-(4-methylphenyl)-3-(trifluoromethyl)-1H-pyrazol-1-yl]benzenesulfonamide, reference compound]
Mean % increase in paw weight ± SEM [1]: 27.3 ± 0.4%
% Inhibition of paw oedema from control group [1]: 85.6 ± 0.4%
% Inhibition of paw oedema from control group ([1]; listed as celecoxib): 85.6%
Percentage inhibition of paw oedema from control group ([1]; dose 45 mg/kg): 69.8%
Percentage inhibition of paw oedema from control group ([1]; dose 65 mg/kg): 85.6%
Percentage inhibition of paw oedema from control group ([1]; dose 80 mg/kg): 93.5%
ED50 [1]: 34.1 mg/kg
Average number of ulcers (mice): 5
Mean sum of lengths of elongated ulcer (mice): 5.8 ± 0.77 mm

NS(=O)(=O)c1cccc(N2C(=O)c3cc(Cl)c(Cl)cc3C2=O)c1 [Compound 7, 3-(5,6-Dichloro-1,3-dioxoisoindolin-2-yl)benzenesulfonamide]
Mean % increase in paw weight ± SEM [1]: 129.7 ± 0.9%
% Inhibition of paw oedema from control group [1]: 29.7% and 29.7 ± 0.2%
melting point: 256 to 258 °C

NS(=O)(=O)c1cccc(N2C(=O)c3ccc([N+](=O)[O-])cc3C2=O)c1 [Compound 9]
Mean % increase in paw weight ± SEM [1]: 35.6 ± 0.1%
% Inhibition of paw oedema from control group [1]: 80.9% and 80.9 ± 0.9%
Percentage inhibition of paw oedema from control group ([1]; dose 45 mg/kg): 69.8%
Percentage inhibition of paw oedema from control group ([1]; dose 65 mg/kg): 80.9%
Percentage inhibition of paw oedema from control group ([1]; dose 80 mg/kg): 90.5%
ED50 [1]: 37 mg/kg
IC50 (COX-1): > 50 µM
SI, selectivity index (COX-1 IC50/COX-2 IC50) (COX-2): >333.3
IC50 (COX-2): 0.15 µM
Average number of ulcers (mice): 4
Mean sum of lengths of elongated ulcer (mice): 1.7 ± 0.21 mm
level of ulcerogenic activity (in words) (mice): very low levels of ulcerogenic activity

C/C(=N/O)c1ccc(N2C(=O)C3CC=CCC3C2=O)cc1 (stereo not drawn) [Compound 12]
Mean % increase in paw weight ± SEM [1]: 37.5 ± 0.5%
% Inhibition of paw oedema from control group [1]: 79.7% and 79.7 ± 0.4%
Percentage inhibition of paw oedema from control group ([1]; dose 45 mg/kg): 65.3%
Percentage inhibition of paw oedema from control group ([1]; dose 65 mg/kg): 79.7%
Percentage inhibition of paw oedema from control group ([1]; dose 80 mg/kg): 87.4%
ED50 [1]: 39.2 mg/kg
IC50 (COX-1): > 50 µM
SI, selectivity index (COX-1 IC50/COX-2 IC50) (COX-2): >312.5
IC50 (COX-2): 0.16 µM
Average number of ulcers (mice): 5
Mean sum of lengths of elongated ulcer (mice): 2.4 ± 0.13 mm
level of ulcerogenic activity (in words) (mice): ulcerogenic level similar to celecoxib and less than that of diclofenac

C/C(=N/O)c1ccc(N2C(=O)c3ccccc3C2=O)cc1 [Compound 13]
Mean % increase in paw weight ± SEM [1]: 36.2 ± 0.2%
% Inhibition of paw oedema from control group [1]: 80.4% and 80.4 ± 0.7%
Percentage inhibition of paw oedema from control group ([1]; dose 45 mg/kg): 67.9%
Percentage inhibition of paw oedema from control group ([1]; dose 65 mg/kg): 80.4%
Percentage inhibition of paw oedema from control group ([1]; dose 80 mg/kg): 91.1%
ED50 [1]: 37.5 mg/kg
IC50 (COX-1): > 50 µM
SI, selectivity index (COX-1 IC50/COX-2 IC50) (COX-2): >312.5
IC50 (COX-2): 0.16 µM
Average number of ulcers (mice): 5
Mean sum of lengths of elongated ulcer (mice): 2.1 ± 0.23 mm
level of ulcerogenic activity (in words) (mice): ulcerogenic level similar to celecoxib and less than that of diclofenac

C/C(=N/O)c1ccc(N2C(=O)c3ccc(C)cc3C2=O)cc1 [Compound 14]
Mean % increase in paw weight ± SEM [1]: 70.8 ± 0.6%
% Inhibition of paw oedema from control group [1]: 61.6% and 61.6 ± 0.5%
IC50 (COX-1): > 50 µM
SI, selectivity index (COX-1 IC50/COX-2 IC50) (COX-2): >62.5
IC50 (COX-2): 0.8 µM

C/C(=N/O)c1ccc(N2C(=O)c3ccc(C(C)(C)C)cc3C2=O)cc1 [Compound 15]
Mean % increase in paw weight ± SEM [1]: 95.7 ± 0.9%
% Inhibition of paw oedema from control group [1]: 48.1% and 48.1 ± 0.2%
IC50 (COX-1): > 50 µM
SI, selectivity index (COX-1 IC50/COX-2 IC50) (COX-2): >14.3
IC50 (COX-2): 3.5 µM

C/C(=N/O)c1ccc(N2C(=O)c3cc(Cl)c(Cl)cc3C2=O)cc1 [Compound 16]
Mean % increase in paw weight ± SEM [1]: 115.3 ± 1.2%
% Inhibition of paw oedema from control group [1]: 39.6% and 39.6 ± 0.4%

C/C(=N/O)c1ccc(N2C(=O)c3c(Cl)c(Cl)c(Cl)c(Cl)c3C2=O)cc1 [Compound 17]
Mean % increase in paw weight ± SEM [1]: 135.6 ± 0.8%
% Inhibition of paw oedema from control group [1]: 25.1% and 25.1 ± 0.6%

O=C(O)CC(c1ccccc1)N1C(=O)C2CC=CCC2C1=O (stereo not drawn) [Compound 22]
Mean % increase in paw weight ± SEM [1]: 69.1 ± 0.5%
% Inhibition of paw oedema from control group [1]: 62.9 ± 0.4%
IC50 (COX-1): 11.6 µM
SI, selectivity index (COX-1 IC50/COX-2 IC50) (COX-2): 0.46
IC50 (COX-2): 25.1 µM

O=C(O)CC(c1ccccc1)N1C(=O)c2ccccc2C1=O (stereo not drawn) [Compound 23]
Mean % increase in paw weight ± SEM [1]: 65.6 ± 0.3%
% Inhibition of paw oedema from control group [1]: 64.4% and 64.4 ± 0.7%
IC50 (COX-1): 10.9 µM
SI, selectivity index (COX-1 IC50/COX-2 IC50) (COX-2): 0.49
IC50 (COX-2): 22.3 µM

Cc1ccc2c(c1)C(=O)N(C(CC(=O)O)c1ccccc1)C2=O (stereo not drawn) [Compound 24]
Mean % increase in paw weight ± SEM [1]: 123.4 ± 0.9%
% Inhibition of paw oedema from control group [1]: 33.1 ± 0.4%
IC50 (COX-1): 24.8 µM
SI, selectivity index (COX-1 IC50/COX-2 IC50) (COX-2): 0.68
IC50 (COX-2): 36.3 µM

CC(C)(C)c1ccc2c(c1)C(=O)N(C(CC(=O)O)c1ccccc1)C2=O (stereo not drawn) [Compound 25, 3-(5-(tert-Butyl)-1,3-dioxoisoindolin-2-yl)-3-phenylpropanoic acid]
Mean % increase in paw weight ± SEM [1]: 129.0 ± 1.1%
% Inhibition of paw oedema from control group [1]: 29.6 ± 0.7%
melting point: 119 to 121 °C

O=C(O)CC(c1ccccc1)N1C(=O)c2cc(Cl)c(Cl)cc2C1=O (stereo not drawn) [Compound 26, 3-(5,6-Dichloro-1,3-dioxoisoindolin-2-yl)-3-phenylpropanoic acid]
Mean % increase in paw weight ± SEM [1]: 136.3 ± 0.8%
% Inhibition of paw oedema from control group [1]: 24.4 ± 0.3%
melting point: 205 to 207 °C

O=C(O)CC(c1ccccc1)N1C(=O)c2c(Cl)c(Cl)c(Cl)c(Cl)c2C1=O (stereo not drawn) [Compound 27, 3-Phenyl-3-(4,5,6,7-tetrachloro-1,3-dioxoisoindolin-2-yl)propanoic acid]
Mean % increase in paw weight ± SEM [1]: 141.6 ± 1.0%
% Inhibition of paw oedema from control group [1]: 21.2 ± 0.9%
melting point: 280 to 282 °C

O=C(O)Cc1ccccc1Nc1c(Cl)cccc1Cl [Diclofenac, reference compound]
Mean % increase in paw weight ± SEM [1]: 30.1 ± 0.3%
% Inhibition of paw oedema from control group [1]: 83.4% and 83.4 ± 0.5%
Average number of ulcers (mice): 10
Mean sum of lengths of elongated ulcer (mice): 7.6 ± 0.89 mm
